Data reported in patent publication US20240327393A1 (SIRONAX LTD., priority 2021, published 2024).

These compounds were tested on HT-1080 (ATCC, CCL-121) cells (assay: HT-1080 cell viability assay with ferroptosis inducer RSL3 (Cell Titer-Glo)). Conditions: Homo sapiens; HT-1080 cells treated with RSL3; 3-fold, 10-point dilution, 1.1 μM highest concentration; Table 2; read-out: EC50 (nM), ferroptosis inhibitory activity.
Format: cell-based
Method in brief: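 HT-1080 cells (6000 per well) were cultured overnight at 37 °C, then co-treated with RSL3 and compound in a 3-fold, 10-point series topping at 1.1 μM. Viability was read by CellTiter-Glo luminescence and normalized to untreated controls. EC50 came from a sigmoidal non-linear regression fit.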

Row | SMILES | EC50 [nM]
1 | CNCCN1C(=O)COc2cc(Nc3ccc(N4CC(C)OC(C)C4)cc3)ccc21 (stereo not shown) [Compound 53, 7-((4-(2,6-dimethylmorpholino)phenyl)amino)-4-(2-(methylamino)ethyl)-2H-benzo[b][1,4]oxazin-3(4H)-one] | 0.1 to 100
2 | CC1CN(c2ccc(Nc3ccc4nn(C)cc4c3)cc2)CC(C)O1 (stereo not shown) [Compound 423, N-(4-(2,6-dimethylmorpholino)phenyl)-2-methyl-2H-indazol-5-amine] | 0.1 to 100
3 | CN1Cc2cc(Nc3ccc(N4CCC(C(F)(F)F)CC4)c(F)c3)ccc2C1=O [Compound 204, 5-((3-fluoro-4-(4-(trifluoromethyl)piperidin-1-yl)phenyl)amino)-2-methylisoindolin-1-one] | 0.1 to 100
4 | Cn1c(=O)c2ccc(Nc3ccc(N4CCC(C(F)(F)F)CC4)c(F)c3)cc2n1C(=O)OC(C)(C)C [Compound 216, tert-butyl 6-((3-fluoro-4-(4-(trifluoromethyl)piperidin-1-yl)phenyl)amino)-2-methyl-3-oxo-2,3-dihydro-1H-indazole-1-carboxylate] | 0.1 to 100
5 | CN1Cc2cc(Nc3ccc(N4CCCC(C(F)(F)F)C4)cc3)ccc2C1=O (stereo not shown) [Compound 242, 2-methyl-5-((4-(3-(trifluoromethyl)piperidin-1-yl)phenyl)amino) isoindolin-1-one] | 0.1 to 100
6 | CN1CCN(CC(=O)N2Cc3ccc(Nc4ccc(N5CCCCC5)cc4)cc3C2)CC1 [Compound 163, 2-(4-methylpiperazin-1-yl)-1-(5-((4-(piperidin-1-yl)phenyl)amino)isoindolin-2-yl)ethan-1-one] | 0.1 to 100
7 | Cc1cc(N2CC(C)OC(C)C2)ccc1Nc1ccc2c(c1)CNC2 (stereo not shown) [Compound 440, N-(4-(2,6-dimethylmorpholino)-2-methylphenyl)isoindolin-5-amine] | 0.1 to 100
8 | CN1Cc2cc(Nc3ccc(CN4CCCC4)cc3)ccc2C1=O [Compound 238, 2-methyl-5-((4-(pyrrolidin-1-ylmethyl)phenyl)amino)isoindolin-1-one] | 1000 to 10000
9 | CN1CCC(N2Cc3cc(Nc4ccc(N5CCC(C(F)(F)F)CC5)cc4)ccc3C2=O)CC1 [Compound 208, 2-(1-methylpiperidin-4-yl)-5-((4-(4-(trifluoromethyl)piperidin-1-yl)phenyl)amino)isoindolin-1-one] | 0.1 to 100
10 | Cn1c(=O)n(C)c2cc(Nc3ccc(N4CCC(C)(O)CC4)cc3)ccc21 [Compound 341, 5-((4-(4-hydroxy-4-methylpiperidin-1-yl)phenyl)amino)-1,3-dimethyl-1,3-dihydro-2H-benzo[d]imidazol-2-one] | 0.1 to 100
11 | CN1CCN(CC(=O)N2CCc3cc(Nc4ccccc4)ccc3C2)CC1 [Compound 107, 2-(4-methylpiperazin-1-yl)-1-(6-(phenylamino)-3,4-dihydroisoquinolin-2(1H)-yl)ethan-1-one] | 0.1 to 100
12 | CN1Cc2cc(Nc3ccc(N4CCC(C(F)(F)F)CC4)cc3)cc(F)c2C1=O [Compound 202, 7-fluoro-2-methyl-5-((4-(4-(trifluoromethyl)piperidin-1-yl)phenyl)amino) isoindolin-1-one] | 0.1 to 100
13 | NC(=O)CCn1ncc2cc(Nc3ccc(N4CCC(C(F)(F)F)CC4)cc3)ccc21 [Compound 412, 3-(5-((4-(4-(trifluoromethyl)piperidin-1-yl)phenyl)amino)-1H-indazol-1-yl)propanamide] | 0.1 to 100
14 | Cn1c(=O)n(C)c2cc(Nc3ccc(CN4CCCC4)cc3)ccc21 [Compound 295, 1,3-dimethyl-5-((4-(pyrrolidin-1-ylmethyl)phenyl)amino)-1,3-dihydro-2H-benzo[d]imidazol-2-one] | 1000 to 10000
15 | Cc1cc(N2CC(C)OC(C)C2)ccc1Nc1ccc2[nH]ncc2c1 (stereo not shown) [Compound 443, N-(4-(2,6-dimethylmorpholino)-2-methylphenyl)-1H-indazol-5-amine] | 0.1 to 100
16 | CNCCCn1ncc2cc(Nc3ccc(N4CCC(C(F)(F)F)CC4)cc3)ccc21 [Compound 414, 1-(3-(methylamino)propyl)-N-(4-(4-(trifluoromethyl)piperidin-1-yl)phenyl)-1H-indazol-5-amine] | 0.1 to 100
17 | Cc1cc(N2CC(C)OC(C)C2)ccc1Nc1ccc2c(c1)ncn2C (stereo not shown) [Compound 447, N-(4-(2,6-dimethylmorpholino)-2-methylphenyl)-1-methyl-1H-benzo[d]imidazol-5-amine] | 0.1 to 100
18 | Cc1cc(N2CCC(C(F)(F)F)CC2)cc(C)c1Nc1ccc2c(c1)OCC(=O)N2C [Compound 79, 7-((2,6-dimethyl-4-(4-(trifluoromethyl)piperidin-1-yl)phenyl)amino)-4-methyl-2H-benzo[b][1,4]oxazin-3(4H)-one] | 0.1 to 100
19 | Cn1c(=O)n(C)c2cc(Nc3ccccc3)ccc21 [Compound 382, 1,3-dimethyl-5-(phenylamino)-1,3-dihydro-2H-benzo[d]imidazol-2-one] | 0.1 to 100
20 | CN1CCOc2cc(Nc3ccc(N4CCC(C(F)(F)F)CC4)cc3)ccc2C1=O [Compound 346, 4-methyl-8-((4-(4-(trifluoromethyl)piperidin-1-yl)phenyl)amino)-3,4-dihydrobenzo[f][1,4]oxazepin-5(2H)-one] | 100 to 1000
21 | CN(C)c1cc(Nc2ccc3c(c2)n(C)c(=O)n3C)cc(N(C)C)c1 [Compound 277, 5-((3,5-bis(dimethylamino)phenyl)amino)-1,3-dimethyl-1,3-dihydro-2H-benzo[d]imidazol-2-one] | 0.1 to 100
22 | CN1C(=O)COc2cc(Nc3ccc(N4CCC(C(F)(F)F)CC4)cc3F)ccc21 [Compound 34, 7-((2-fluoro-4-(4-(trifluoromethyl)piperidin-1-yl)phenyl)amino)-4-methyl-2H-benzo[b][1,4]oxazin-3(4H)-one] | 100 to 1000
23 | Cn1ccc2cc(Nc3ccc(N4CCC(C(F)(F)F)CC4)cc3)ccc21 [Compound 347, 1-methyl-N-(4-(4-(trifluoromethyl)piperidin-1-yl)phenyl)-1H-indol-5-amine] | 0.1 to 100
24 | CN1Cc2cc(Nc3cccc(N(C)C)c3)ccc2C1=O [Compound 234, 5-((3-(dimethylamino)phenyl)amino)-2-methylisoindolin-1-one] | 0.1 to 100

Same assay, conditions: Homo sapiens; HT-1080 cells treated with RSL3; 3-fold, 10-point dilution, 1.1 μM highest concentration; Table 3; read-out: EC50 (nM), ferroptosis inhibitory activity

Row | SMILES | EC50 [nM]
25 | Cc1cc(N2CCC(OC(F)(F)F)C2)ccc1Nc1ccc2c(c1)OCCC(=O)N2 (stereo not shown) [Compound 591, 8-((2-methyl-4-(3-(trifluoromethoxy)pyrrolidin-1-yl)phenyl)amino)-2,3-dihydrobenzo[b][1,4]oxazepin-4(5H)-one] | 0.1 to 100
26 | Cc1cc(N2CCC(C(F)(F)F)CC2)ccc1Nc1ccc2c(c1)OCCC(=O)N2C [Compound 594, 5-methyl-8-((2-methyl-4-(4-(trifluoromethyl)piperidin-1-yl)phenyl)amino)-2,3-dihydrobenzo[b][1,4]oxazepin-4(5H)-one] | 0.1 to 100
27 | Cc1cc(Nc2ccc(N3CC(C)OC(C)C3)cc2)cc2c1N(C)C(=O)CO2 (stereo not shown) [Compound 463, 7-{[4-(2,6-dimethylmorpholin-4-yl)phenyl]amino}-4,5-dimethyl-2H-1,4-benzoxazin-3-one] | 0.1 to 100
28 | O=C1COc2cc(Nc3ccc(N4CCC(C(F)(F)F)CC4)c(F)c3)ccc2N1 [Compound 486, 7-((3-fluoro-4-(4-(trifluoromethyl)piperidin-1-yl)phenyl)amino)-2H-benzo[b][1,4]oxazin-3(4H)-one] | 0.1 to 100
29 | Cc1cc(N2CC(C)OC(C)C2)ccc1Nc1ccc2c(c1)nc(N)n2C (stereo not shown) [Compound 536, 5-N-[4-(2,6-dimethylmorpholin-4-yl)-2-methylphenyl]-1-methyl-1,3-benzodiazole-2,5-diamine] | 0.1 to 100
30 | Cc1nc(N2CCN(CC(F)(F)F)CC2)ccc1Nc1ccc2c(c1)OCC(=O)N2 [Compound 521, 7-((2-methyl-6-(4-(2,2,2-trifluoroethyl)piperazin-1-yl)pyridin-3-yl)amino)-2H-benzo[b][1,4]oxazin-3(4H)-one] | 0.1 to 100
31 | CC1=NCC(=O)Nc2ccc(Nc3ccc(N4CCC(C(F)(F)F)CC4)cc3C)cc21 [Compound 656, 5-methyl-7-[2-methyl-4-[4-(trifluoromethyl)-1-piperidyl]anilino]-1,3-dihydro-1,4-benzodiazepin-2-one] | 0.1 to 100
32 | CC(C)(C)C(=O)NN1C(=O)COc2cc(Nc3ccc(N4CCC(C(F)(F)F)CC4)cc3)ccc21 [Compound 600, N-(3-oxo-7-((4-(4-(trifluoromethyl)piperidin-1-yl)phenyl)amino)-2,3-dihydro-4H-benzo[b][1,4]oxazin-4-yl)pivalamide] | 0.1 to 100
33 | Cc1cc(N2CCC(C(F)(F)F)CC2)ccc1Nc1ccc2ncc(C(N)=O)n2c1 [Compound 630, 6-((2-methyl-4-(4-(trifluoromethyl)piperidin-1-yl)phenyl)amino) imidazo[1,2-a]pyridine-3-carboxamide] | 0.1 to 100
34 | Cc1cc(N2CCC(C(F)(F)F)CC2)ccc1Nc1ccc2c(c1)OCC(=O)N(C)C2 [Compound 631, 4-methyl-8-((2-methyl-4-(4-(trifluoromethyl)piperidin-1-yl)phenyl)amino)-4,5-dihydrobenzo[f][1,4]oxazepin-3(2H)-one] | 0.1 to 100
35 | Cc1c(Nc2ccc3c(c2)OCC(=O)N3)ccc(N2CCC(C(F)(F)F)CC2)c1F [Compound 454, 7-((3-fluoro-2-methyl-4-(4-(trifluoromethyl)piperidin-1-yl)phenyl)amino)-2H-benzo[b][1,4]oxazin-3(4H)-one] | 0.1 to 100
36 | Cc1cc(N2CCC(C(F)(F)F)CC2)ccc1Nc1ccc2c(c1)OC(C)C(=O)N2 (stereo not shown) [Compound 482, 2-methyl-7-((2-methyl-4-(4-(trifluoromethyl)piperidin-1-yl)phenyl)amino)-2H-benzo[b][1,4]oxazin-3(4H)-one] | 0.1 to 100
37 | O=C1COc2cc(Nc3ccc(N4CCC(C(F)(F)F)CC4)nc3)ccc2N1 [Compound 474, 7-((6-(4-(trifluoromethyl)piperidin-1-yl)pyridin-3-yl)amino)-2H-benzo[b][1,4]oxazin-3(4H)-one] | 0.1 to 100
